{"source": "patent US20130150430A1", "about": "“Methods for Impairing the P53/HDM2 Auto-Regulatory Loop in Multiple Myeloma Development Using mIR-192, mIR-194 and mIR-215” (THE OHIO STATE UNIVERSITY, priority 2011, published 2013)", "test_system": "miR-192 and miR-194 in WT TP53 MM cell lines", "experiment": "qRT-PCR of miRNAs after demethylation agent", "format": "cell-based, human", "conditions": "10 μM, 3 days, vs DMSO", "data": [{"smiles": "Nc1ncn([C@@H]2O[C@H](CO)[C@@H](O)[C@H]2O)c(=O)n1", "note": "[Azacytidine]", "values": [{"measurement": "expression of miR-194-2-192 cluster miRNAs", "value": "increased"}]}]}
